Data as given in patent US10988523B2, “Modified lipidated Relaxin B chain peptides and their therapeutic use” (Sanofi, priority 2018, dated 2021).
*1 amine or outer side, *2 acyl side, *3 side chain or, on linkers, in order; H or OH if unused. Where a SMILES comes first, the peptide text is derived from it. Side-chain parts run from the residue outwards. [ ]: non-standard residue; d: D form. The star is where a group is joined. PEG12 = NCCOCCOCCOCCOCCOCCOCCOCCOCCOCCOCCOCCOCCC(=O)O; γGlu = O=C(O)[C@H](CCC(=O)[*:2])N[*:1]; Stearoyl = CCCCCCCCCCCCCCCCCC(=O)*; Nle = CCCC[C@H](N)C(=O)O; AEEA = NCCOCCOCC(=O)O; Aib = CC(C)(N)C(=O)O

Target: T1, RXFP1 (Homo sapiens, UniProt Q9HBX9)
T1 construct: OVCAR5 cells expressing endogenous RXFP1; endogenous in cells; host or cells: OVCAR5 cells
T1 sequence (Q9HBX9 1-757): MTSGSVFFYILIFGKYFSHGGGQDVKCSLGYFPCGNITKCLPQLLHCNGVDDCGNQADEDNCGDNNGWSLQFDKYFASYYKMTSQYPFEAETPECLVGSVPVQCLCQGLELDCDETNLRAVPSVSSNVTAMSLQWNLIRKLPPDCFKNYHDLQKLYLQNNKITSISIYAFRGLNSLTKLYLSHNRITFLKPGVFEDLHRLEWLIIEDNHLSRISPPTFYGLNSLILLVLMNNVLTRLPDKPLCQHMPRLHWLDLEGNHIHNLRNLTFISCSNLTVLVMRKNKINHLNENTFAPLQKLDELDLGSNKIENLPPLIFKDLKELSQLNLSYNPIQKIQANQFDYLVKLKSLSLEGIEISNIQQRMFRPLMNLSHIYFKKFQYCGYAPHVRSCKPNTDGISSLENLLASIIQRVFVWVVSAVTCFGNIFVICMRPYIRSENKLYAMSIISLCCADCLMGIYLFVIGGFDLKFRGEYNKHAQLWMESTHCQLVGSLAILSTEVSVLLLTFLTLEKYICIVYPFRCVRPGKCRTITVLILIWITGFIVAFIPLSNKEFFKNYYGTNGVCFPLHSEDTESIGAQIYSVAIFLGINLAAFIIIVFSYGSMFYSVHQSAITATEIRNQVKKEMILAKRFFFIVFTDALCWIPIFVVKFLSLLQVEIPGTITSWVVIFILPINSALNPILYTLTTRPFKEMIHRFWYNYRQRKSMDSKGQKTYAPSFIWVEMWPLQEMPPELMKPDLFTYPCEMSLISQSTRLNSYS
Experiment: OVCAR5 cAMP assay (HTRF), RXFP1 agonist activity
Type: cell-based
Details: for Emax: OVCAR-5, maximal cAMP relative to H2-relaxin maximum (100%), read-out: EMax, OVCAR 5 cells (cAMP)
Method in brief: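 OVCAR5 cells (endogenous RXFP1) pretreated 40 min at 37° C with 1 mM IBMX, then exposed to peptides in serum-free medium for 30 min at 37° C. Lysate cAMP read by HTRF; EC50 from variable-slope sigmoidal fit; Emax as % of H2-relaxin maximal cAMP in same run.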

EC50 (OVCAR5 cells, cAMP HTRF, read-out: EC50 (nM), OVCAR 5 cells (cAMP)) [nM]	Emax [%]	Compound
0.07	88	CCCCCCCCCCCCCCCCCC(=O)N[C@@H](CCC(=O)N[C@@H](CCC(=O)N[C@@H](CCC(=O)NCCOCCOCC(=O)NCCOCCOCC(=O)NCCOCCOCC(=O)NCCCC[C@H](NC(=O)[C@H](CCCCN)NC(=O)[C@H](CCCCN)NC(=O)[C@H](CCCNC(=N)N)NC(=O)C(C)(C)NC(=O)[C@H](CO)NC(=O)[C@H](Cc1c[nH]c2ccccc12)NC(=O)[C@@H](NC(=O)[C@H](CO)NC(=O)[C@H](CCCC)NC(=O)CNC(=O)[C@H](CCC(=O)O)NC(=O)C(C)(C)NC(=O)C(C)(C)NC(=O)[C@@H](NC(=O)[C@H](CCC(N)=O)NC(=O)[C@H](C)NC(=O)[C@H](CCCNC(=N)N)NC(=O)[C@@H](NC(=O)[C@H](CCCCN)NC(=O)[C@H](CCC(=O)O)NC(=O)[C@H](CCCNC(=N)N)NC(=O)CNC(=O)[C@H](CCC(=O)O)NC(=O)[C@H](CC(C)C)NC(C)=O)C(C)C)[C@@H](C)CC)[C@@H](C)O)C(N)=O)C(=O)O)C(=O)O)C(=O)O [compound 75] (Ac-LEGREKVRAQI[Aib][Aib]EG[Nle]STWS[Aib]RKKK([AEEA-AEEA-AEEA-γGlu-γGlu-γGlu-Stearoyl])-NH2)
	95	CCCCCCCCCCCCCCCCCC(=O)N[C@@H](CCC(=O)NCCOCCOCC(=O)NCCOCCOCC(=O)NCCCC[C@H](NC(=O)[C@H](CCCCN)NC(=O)[C@H](CCCNC(=N)N)NC(=O)C(C)(C)NC(=O)[C@H](CO)NC(=O)[C@H](Cc1c[nH]c2ccccc12)NC(=O)[C@@H](NC(=O)[C@H](CO)NC(=O)[C@H](CCCC)NC(=O)CNC(=O)[C@H](CCC(=O)O)NC(=O)C(C)(C)NC(=O)C(C)(C)NC(=O)[C@@H](NC(=O)[C@H](CCC(N)=O)NC(=O)[C@H](C)NC(=O)[C@H](CCCNC(=N)N)NC(=O)[C@@H](NC(=O)[C@H](CCCCN)NC(=O)[C@H](CCC(=O)O)NC(=O)[C@H](CCCNC(=N)N)NC(=O)CNC(=O)[C@H](CCC(=O)O)NC(=O)[C@H](CC(C)C)NC(C)=O)C(C)C)[C@@H](C)CC)[C@@H](C)O)C(N)=O)C(=O)O [compound 56] (Ac-LEGREKVRAQI[Aib][Aib]EG[Nle]STWS[Aib]RKK([AEEA-AEEA-γGlu-Stearoyl])-NH2)
	84	CCCCCCCCCCCCCCCCCC(=O)N[C@@H](CCC(=O)N[C@@H](CCC(=O)N[C@@H](CCC(=O)NCCCC[C@H](NC(=O)CCOCCOCCOCCOCCOCCOCCOCCOCCOCCOCCOCCOCCNC(=O)[C@H](CCCCNC(C)=O)NC(=O)[C@H](CCCCN)NC(=O)[C@H](CCCNC(=N)N)NC(=O)C(C)(C)NC(=O)[C@H](CO)NC(=O)[C@H](Cc1c[nH]c2ccccc12)NC(=O)[C@@H](NC(=O)[C@H](CO)NC(=O)[C@H](CCCC)NC(=O)CNC(=O)[C@H](CCC(=O)O)NC(=O)C(C)(C)NC(=O)C(C)(C)NC(=O)[C@@H](NC(=O)[C@H](CCCCNC(C)=O)NC(=O)C(C)(C)NC(=O)[C@H](CCCNC(=N)N)NC(=O)[C@@H](NC(=O)[C@H](CCCCN)NC(=O)[C@H](CCC(=O)O)NC(=O)[C@H](CCCNC(=N)N)NC(=O)CNC(=O)[C@H](CCC(=O)O)NC(=O)[C@H](CC(C)C)NC(C)=O)C(C)C)[C@@H](C)CC)[C@@H](C)O)C(N)=O)C(=O)O)C(=O)O)C(=O)O [compound 36] (Ac-LEGREKVR[Aib]K(Ac)I[Aib][Aib]EG[Nle]STWS[Aib]RKK(Ac)[PEG12]K([γGlu-γGlu-γGlu-Stearoyl])-NH2)
